From PMC12744908 (Journal of medicinal chemistry, 2025)

Experiments:
[1] = system: Plasmodium falciparum, Strain D6; test: In vitro antiplasmodial activity, fluorescence-based SYBR Green assay, strain D6; type: cell-based; conditions: D6, 72 h, read-out: IC50 v D6 ± SD
[2] = HepG2 cytotoxicity assay; type: cell-based; conditions: human
[3] = Murine microsomal stability; type: in vitro ADME
[4] = system: Plasmodium yoelii; test: In vivo parasite suppression at fixed dose, modified 4-day Peters test; set-up: species or system Plasmodium yoelii (female CF1 mice); conditions: for inhibition in vivo at 2.5 mg/kg: Plasmodium yoelii, in Mus musculus, po, 120 h, read-out: % Py Suppression; for % Py Suppression: 2.5 mg/kg/d oral, Days 1-4, parasitemia Day 5 vs vehicle control, n = 4
[5] = system: Plasmodium yoelii; test: In vivo efficacy; set-up: species or system Plasmodium yoelii (female CF1 mice); conditions: oral once daily for 4 days, parasitemia Day 5
[6] = system: Plasmodium yoelii; test: Single dose cure; type: in vivo, Plasmodium yoelii (female CF1 mice); conditions: single oral dose Day 1, 0% parasitemia until Day 30
[7] = mouse, pooled liver microsomes, pH 7.4

Row | Compound | CC50 at 24 h ([2]; HepG2 cells) | CLint scaled at 1 μM [3, 7] | inhibition in vivo at 2.5 mg/kg [4] | other results
1 | CCN(CC)CCCC(C)Nc1ccnc2cc(Cl)ccc12 (centres unmarked) [Compound 1, chloroquine] |  |  |  | IC50 [1]: 0.0096 ± 0.002 µM
2 | Clc1ccc2c(Nc3ccc(N4CCOCC4)cc3)ccnc2c1 [Compound 7, 7-chloro-N-(4-morpholinophenyl)quinolin-4-amine] | > 200 µM |  |  | 
3 | FC(F)(F)Oc1ccc(-c2cnc3cc(Cl)ccc3c2Nc2ccc(N3CCOCC3)cc2)cc1 [Compound 8, 7-chloro-N-(4-morpholinophenyl)-3-(4-(trifluoromethoxy)phenyl)quinolin-4-amine] | > 200 µM |  |  | 
4 | Clc1ccc2c(Nc3ccc(C4COCCN4Cc4ccccc4)cc3)ccnc2c1 (centres unmarked) [Compound 12, N-(4-(4-benzylmorpholin-3-yl)phenyl)-7-chloroquinolin-4-amine] | > 200 µM |  |  | 
5 | CCN1CCOCC1c1ccc(Nc2ccnc3cc(Cl)ccc23)cc1 (centres unmarked) [Compound 13, 7-chloro-N-(4-(4-ethylmorpholin-3-yl)phenyl)quinolin-4-amine] | > 200 µM |  |  | 
6 | CCN1CCOCC1c1ccc(Nc2c(-c3ccc(OC(F)(F)F)cc3)cnc3cc(Cl)ccc23)cc1 (centres unmarked) [Compound 14, 7-chloro-N-(4-(4-ethylmorpholin-3-yl)phenyl)-3-(4-(trifluoromethoxy)phenyl)quinolin-4-amine] | > 200 µM |  |  | 
7 | Clc1ccc2c(Nc3ccc(C4CN(Cc5ccccc5)CCO4)cc3)ccnc2c1 (centres unmarked) [Compound 15, N-(4-(4-benzylmorpholin-2-yl)phenyl)-7-chloroquinolin-4-amine] | 38 µM |  |  | 
8 | FC(F)(F)Oc1ccc(-c2cnc3cc(Cl)ccc3c2Nc2ccc(C3CN(Cc4ccccc4)CCO3)cc2)cc1 (centres unmarked) [Compound 16, N-(4-(4-benzylmorpholin-2-yl)phenyl)-7-chloro-3-(4-(trifluoromethoxy)phenyl)quinolin-4-amine] | > 200 µM |  |  | 
9 | Clc1ccc2c(Nc3ccc(N4CCN(Cc5ccccc5)CC4)cc3)ccnc2c1 [Compound 17, N-(4-(4-benzylpiperazin-1-yl)phenyl)-7-chloroquinolin-4-amine] | > 200 µM | 392 mL/min/kg | 0% | 
10 | CCN1CCN(c2ccc(Nc3ccnc4cc(Cl)ccc34)cc2)CC1 [Compound 20, 7-chloro-N-(4-(4-ethylpiperazin-1-yl)phenyl)quinolin-4-amine] | > 200 µM | 2930 mL/min/kg | 60% | ED50 v Py [5]: 1.5 mg/kg/day; ED90 v Py [5]: 8.4 mg/kg/day
11 | CN1CCN(c2ccc(Nc3ccnc4cc(Cl)ccc34)cc2)CC1 [Compound 21, 7-chloro-N-(4-(4-methylpiperazin-1-yl)phenyl)quinolin-4-amine] |  | 3780 mL/min/kg |  | 
12 | CCN1CCN(c2ccc(Nc3ccnc4cc(Cl)c(Cl)cc34)cc2)CC1 [Compound 24, 6,7-dichloro-N-(4-(4-ethylpiperazin-1-yl)phenyl)quinolin-4-amine] | > 200 µM |  |  | 
13 | CCN1CCN(c2ccc(Nc3ccnc4cc(Br)ccc34)cc2)CC1 [Compound 25, 7-bromo-N-(4-(4-ethylpiperazin-1-yl)phenyl)quinolin-4-amine] | 48 µM |  |  | 
14 | CCN1CCN(c2ccc(Nc3ccnc4cc(C(F)(F)F)ccc34)cc2)CC1 [Compound 26, N-(4-(4-ethylpiperazin-1-yl)phenyl)-7-(trifluoromethyl)quinolin-4-amine] | > 200 µM |  |  | 
15 | CC(C)(C)N1CCN(c2ccc(Nc3ccnc4cc(Cl)ccc34)cc2)CC1 [Compound 31, N-(4-(4-(tert-butyl)piperazin-1-yl)phenyl)-7-chloroquinolin-4-amine] | > 200 µM |  | 30% | ED50 v Py [5]: 4.0 mg/kg/day; ED90 v Py [5]: 7.6 mg/kg/day; t1/2 (microsomal stability) ([3]; pooled murine liver microsomes, 1 μM, 0.5 mg/mL protein, 37 °C, 1 h): ∞; compound metabolized over the course of the microsomal experiment ([3]; pooled murine liver microsomes, 1 h): no detectable amount of compound was metabolized
16 | FC(F)(F)c1ccc(N2CCN(c3ccc(Nc4ccnc5cc(Cl)ccc45)cc3)CC2)cc1 [Compound 32, 7-chloro-N-(4-(4-(4-(trifluoromethyl)phenyl)piperazin-1-yl)phenyl)quinolin-4-amine] | > 200 µM |  |  | 
17 | Clc1ccc2c(Nc3ccc(N4CCN(C5CC5)CC4)cc3)ccnc2c1 [Compound 33, 7-chloro-N-(4-(4-cyclopropylpiperazin-1-yl)phenyl)quinolin-4-amine] | > 200 µM |  |  | 
18 | Clc1ccc2c(Nc3ccc(N4CCCCC4)cc3)ccnc2c1 [Compound 34, 7-chloro-N-(4-(piperidin-1-yl)phenyl)quinolin-4-amine] | > 200 µM |  |  | 
19 | CC(C)N1CCC(c2ccc(Nc3ccnc4cc(Cl)ccc34)cc2)CC1 [Compound 35, 7-chloro-N-(4-(1-isopropylpiperidin-4-yl)phenyl)quinolin-4-amine] | > 200 µM | 124 mL/min/kg | 48% | ED50 v Py [5]: 1.1 mg/kg/day; ED90 v Py [5]: 4.1 mg/kg/day
20 | CC(C)(C)OC(=O)N1CCN(c2ccc(Nc3ccnc4cc(Cl)ccc34)cc2)CC1 [Compound 36, tert-butyl 4-(4-((7-chloroquinolin-4-yl)amino)phenyl)piperazine-1-carboxylate] | > 200 µM |  |  | 
21 | Clc1ccc2c(Nc3ccc(N4CCNCC4)cc3)ccnc2c1 [Compound 38, 7-chloro-N-(4-(piperazin-1-yl)phenyl)quinolin-4-amine] | 54 µM |  |  | 
22 | Clc1ccc2c(Nc3ccc(C4CCNCC4)cc3)ccnc2c1 [Compound 39, 7-chloro-N-(4-(piperidin-4-yl)phenyl)quinolin-4-amine] | 58 µM |  |  | 
23 | CCN1CCC(c2ccc(Nc3ccnc4cc(Cl)ccc34)cc2)CC1 [Compound 40, 7-chloro-N-(4-(1-ethylpiperidin-4-yl)phenyl)quinolin-4-amine] |  | 497 mL/min/kg | 13% | ED50 v Py [5]: 1.8 mg/kg/day; ED90 v Py [5]: 13 mg/kg/day
24 | CCCN1CCC(c2ccc(Nc3ccnc4cc(Cl)ccc34)cc2)CC1 [Compound 41, 7-chloro-N-(4-(1-propylpiperidin-4-yl)phenyl)quinolin-4-amine] | > 200 µM | 78 mL/min/kg | 39% | % Py Suppression [4]: 39%
25 | CCCCN1CCC(c2ccc(Nc3ccnc4cc(Cl)ccc34)cc2)CC1 [Compound 42, N-(4-(1-butylpiperidin-4-yl)phenyl)-7-chloroquinolin-4-amine] | > 200 µM | 130 mL/min/kg | 53% | 
26 | CC(C)CN1CCC(c2ccc(Nc3ccnc4cc(Cl)ccc34)cc2)CC1 [Compound 43, 7-chloro-N-(4-(1-isobutylpiperidin-4-yl)phenyl)quinolin-4-amine] |  |  | 91% | CC50 at 24 h [2]: > 200 µM; SDC (single dose cure) [6]: 50 mg/kg; % Py Suppression [4]: 91%
27 | CCC(C)N1CCC(c2ccc(Nc3ccnc4cc(Cl)ccc34)cc2)CC1 (centres unmarked) [Compound 44, N-(4-(1-(sec-butyl)piperidin-4-yl)phenyl)-7-chloroquinolin-4-amine] | > 200 µM | 98.3 mL/min/kg | 71% | 
28 | CC(C)CN1CCN(c2ccc(Nc3ccnc4cc(Cl)ccc34)cc2)CC1 [Compound 45, 7-chloro-N-(4-(4-isobutylpiperazin-1-yl)phenyl)quinolin-4-amine] | > 200 µM | 843 mL/min/kg |  | half-life at 1 μM [3, 7]: 6.47 min; % Py Suppression [4]: 30%
